# Measurements taken from PubChem BioAssay AID2060625 (Molecular Pharmacology Branch, DTP, NCI, 2025).
# Test system: 186277-243-T-J2-PDC spheroids with HUVEC/MSC, viability
# Assay: Anticancer human tumor 186277-243-T-J2-PDC patient-derived colon adenocarcinoma cell line growth inhibition [CLK]
# Conditions: for IC50: curve of first compound; for viability, T/C: stronger effect = lower value
# Outline: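 Patient-derived tumor cells grown as complex spheroids with HUVEC endothelial cells and mesenchymal stem cells, treated with drug combinations. Concentrations descend in half-log steps from near clinical Cmax, or from 10 microM if Cmax unknown.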
# 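Also: compound exposure lasted seven days before readout.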
# 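For viability, T/C in this document: 100% = DMSO vehicle control wells.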
smiles,measurement,setting,value
CC(C)CC(NC(=O)C(Cc1ccccc1)NC(=O)c1cnccn1)B(O)O (centres undefined) + CNC(=O)c1ccc(Nc2nc(OC3CCCC3)c3c(-c4ccc5nc(C)oc5c4)c[nH]c3n2)c(OC)c1,IC50,second compound 0.0316 µM,3.74 nM
same,IC50,second compound 0.1 µM,1.79 nM
same,IC50,second compound 0.316 µM,1.03 nM
same,IC50,second compound 1 µM,< 0.949 nM
same,IC50,second compound 3.16 µM,< 0.949 nM
same,IC50,second compound 10 µM,< 0.949 nM
same,"viability, T/C","second compound 0.0316 µM, first compound 0.000949 µM",112%
same,"viability, T/C","second compound 0.0316 µM, first compound 0.003 µM",60.9%
same,"viability, T/C","second compound 0.0316 µM, first compound 0.00949 µM",4.41%
same,"viability, T/C","second compound 0.0316 µM, first compound 0.03 µM",2.07%
same,"viability, T/C","second compound 0.0316 µM, first compound 0.0949 µM",3.06%
same,"viability, T/C","second compound 0.0316 µM, first compound 0.3 µM",2.24%
same,"viability, T/C","second compound 0.1 µM, first compound 0.000949 µM",77.7%
same,"viability, T/C","second compound 0.1 µM, first compound 0.003 µM",27.6%
same,"viability, T/C","second compound 0.1 µM, first compound 0.00949 µM",3.68%
same,"viability, T/C","second compound 0.1 µM, first compound 0.03 µM",1.91%
same,"viability, T/C","second compound 0.1 µM, first compound 0.0949 µM",2.97%
same,"viability, T/C","second compound 0.1 µM, first compound 0.3 µM",2.4%
same,"viability, T/C","second compound 0.316 µM, first compound 0.000949 µM",52.8%
same,"viability, T/C","second compound 0.316 µM, first compound 0.003 µM",13.1%
same,"viability, T/C","second compound 0.316 µM, first compound 0.00949 µM",2.31%
same,"viability, T/C","second compound 0.316 µM, first compound 0.03 µM",2.27%
same,"viability, T/C","second compound 0.316 µM, first compound 0.0949 µM",1.45%
same,"viability, T/C","second compound 0.316 µM, first compound 0.3 µM",0.89%
same,"viability, T/C","second compound 1 µM, first compound 0.000949 µM",36.5%
same,"viability, T/C","second compound 1 µM, first compound 0.003 µM",3.94%
same,"viability, T/C","second compound 1 µM, first compound 0.00949 µM",2.3%
same,"viability, T/C","second compound 1 µM, first compound 0.03 µM",2.6%
same,"viability, T/C","second compound 1 µM, first compound 0.0949 µM",4.22%
same,"viability, T/C","second compound 1 µM, first compound 0.3 µM",2.48%
same,"viability, T/C","second compound 3.16 µM, first compound 0.000949 µM",33.3%
same,"viability, T/C","second compound 3.16 µM, first compound 0.003 µM",2.4%
same,"viability, T/C","second compound 3.16 µM, first compound 0.00949 µM",0.9%
same,"viability, T/C","second compound 3.16 µM, first compound 0.03 µM",2.14%
same,"viability, T/C","second compound 3.16 µM, first compound 0.0949 µM",2.81%
same,"viability, T/C","second compound 3.16 µM, first compound 0.3 µM",0.81%
same,"viability, T/C","second compound 10 µM, first compound 0.000949 µM",40.4%
same,"viability, T/C","second compound 10 µM, first compound 0.003 µM",2.71%
same,"viability, T/C","second compound 10 µM, first compound 0.00949 µM",1.47%
same,"viability, T/C","second compound 10 µM, first compound 0.03 µM",4.33%
same,"viability, T/C","second compound 10 µM, first compound 0.0949 µM",2.67%
same,"viability, T/C","second compound 10 µM, first compound 0.3 µM",1.5%
O=C(c1cc(Cc2n[nH]c(=O)c3ccccc23)ccc1F)N1CCN(C(=O)C2CC2)CC1 + CNC(=O)c1ccc(Nc2nc(OC3CCCC3)c3c(-c4ccc5nc(C)oc5c4)c[nH]c3n2)c(OC)c1,IC50,second compound 0.0316 µM,> 10000 nM
same,IC50,second compound 0.1 µM,> 10000 nM
same,IC50,second compound 0.316 µM,> 10000 nM
same,IC50,second compound 1 µM,< 31.6 nM
same,IC50,second compound 3.16 µM,< 31.6 nM
same,IC50,second compound 10 µM,< 31.6 nM
same,"viability, T/C","second compound 0.0316 µM, first compound 0.0316 µM",129%
same,"viability, T/C","second compound 0.0316 µM, first compound 0.1 µM",119%
same,"viability, T/C","second compound 0.0316 µM, first compound 0.316 µM",113%
same,"viability, T/C","second compound 0.0316 µM, first compound 1 µM",109%
same,"viability, T/C","second compound 0.0316 µM, first compound 3.16 µM",115%
same,"viability, T/C","second compound 0.0316 µM, first compound 10 µM",120%
same,"viability, T/C","second compound 0.1 µM, first compound 0.0316 µM",88.7%
same,"viability, T/C","second compound 0.1 µM, first compound 0.1 µM",81.7%
same,"viability, T/C","second compound 0.1 µM, first compound 0.316 µM",88.3%
same,"viability, T/C","second compound 0.1 µM, first compound 1 µM",81.2%
same,"viability, T/C","second compound 0.1 µM, first compound 3.16 µM",83.1%
same,"viability, T/C","second compound 0.1 µM, first compound 10 µM",84.1%
same,"viability, T/C","second compound 0.316 µM, first compound 0.0316 µM",55.8%
same,"viability, T/C","second compound 0.316 µM, first compound 0.1 µM",52.3%
same,"viability, T/C","second compound 0.316 µM, first compound 0.316 µM",55.4%
same,"viability, T/C","second compound 0.316 µM, first compound 1 µM",56.7%
same,"viability, T/C","second compound 0.316 µM, first compound 3.16 µM",57.3%
same,"viability, T/C","second compound 0.316 µM, first compound 10 µM",57.6%
same,"viability, T/C","second compound 1 µM, first compound 0.0316 µM",39.5%
same,"viability, T/C","second compound 1 µM, first compound 0.1 µM",39.7%
same,"viability, T/C","second compound 1 µM, first compound 0.316 µM",41.7%
same,"viability, T/C","second compound 1 µM, first compound 1 µM",37.7%
same,"viability, T/C","second compound 1 µM, first compound 3.16 µM",41.8%
same,"viability, T/C","second compound 1 µM, first compound 10 µM",43.9%
same,"viability, T/C","second compound 3.16 µM, first compound 0.0316 µM",36.8%
same,"viability, T/C","second compound 3.16 µM, first compound 0.1 µM",36.6%
same,"viability, T/C","second compound 3.16 µM, first compound 0.316 µM",34.9%
same,"viability, T/C","second compound 3.16 µM, first compound 1 µM",36.7%
same,"viability, T/C","second compound 3.16 µM, first compound 3.16 µM",38.1%
same,"viability, T/C","second compound 3.16 µM, first compound 10 µM",39.6%
same,"viability, T/C","second compound 10 µM, first compound 0.0316 µM",37.7%
same,"viability, T/C","second compound 10 µM, first compound 0.1 µM",37.5%
same,"viability, T/C","second compound 10 µM, first compound 0.316 µM",37.9%
same,"viability, T/C","second compound 10 µM, first compound 1 µM",36.5%
same,"viability, T/C","second compound 10 µM, first compound 3.16 µM",39.9%
same,"viability, T/C","second compound 10 µM, first compound 10 µM",35.5%
